Each structure is given as a SMILES string. pIC50: −log10 of the molar value.

Target in one test: not listed separately
Description: The compound was evaluated for the inhibition of [125I]- Angiotensin II (AII) binding to rat mesenteric membranes. The format is cell membranes, Membrane.
Conditions: not given
`CCCCc1ncc(/C=C\C(=O)O)n1Cc1ccccc1Cl` had a pIC50 of 5.05.

Take `CCCCc1ncc(/C=C(/Cc2ccccc2)C(=O)O)n1Cc1ccccc1Cl`: the pIC50 is 5.59.

In another test the test system is Rattus norvegicus. Description: The compound was evaluated for the inhibition of Angiotensin II (AII) pressor response in conscious normotensive rats. The format is functional. Conditions: read-out: ID50 (the source's name).
As for `CCCCc1ncc(/C=C(/Cc2ccsc2)C(=O)O)n1Cc1ccccc1Cl`, the ED50 came out at 3.6 mg/kg.

With `CCCCc1nc(Cl)c(CC(=O)O)n1Cc1ccccc1Cl`, the ED50 was determined as 30 mg/kg.

On to `CCCCc1ncc(/C=C(/Cc2ccccc2)C(=O)O)n1Cc1ccccc1Cl`, for which the ED50 stood at 14 mg/kg.

`CCCCc1ncc(/C=C(/Cc2ccsc2)C(=O)O)n1Cc1ccc(C(=O)O)cc1`: the ED50 stood at 0.08 mg/kg.

In the case of `CCCCc1ncc(CC(=O)O)n1Cc1ccccc1Cl`, the ED50 is 22.5 mg/kg.

For a further test, the species on record is Oryctolagus cuniculus. In words: The compound was evaluated for the inhibition of angiotensin II (AII) induced rabbit aorta constriction. It is filed as functional.
Conditions: not given
In turn, `CCCCc1ncc(/C=C\C(=O)O)n1Cc1ccccc1Cl` returned a Kb of 810 nM.

In turn, `CCCCc1ncc(/C=C(/Cc2ccsc2)C(=O)O)n1Cc1ccccc1Cl` registered a Kb of 51 nM.

Take `CCCCc1nc(Cl)c(CC(=O)O)n1Cc1ccccc1Cl`: the Kb is 2700 nM.

`CCCCc1ncc(/C=C(/Cc2ccccc2)C(=O)O)n1Cc1ccccc1Cl` showed a Kb of 64 nM.

`CCCCc1ncc(/C=C(/Cc2ccsc2)C(=O)O)n1Cc1ccc(C(=O)O)cc1` had a Kb of 0.21 nM.

The record behind these values is ChEMBL document CHEMBL1126479, “Refinement of a molecular model of angiotensin II (AII) employed in the discovery of potent nonpeptide antagonists” (Bioorg Med Chem Lett, 1993).
